# Test results published in patent US5935932A, “Bradykinin antagonists containing pentafluorophenylalanine” (University Technology Corporation, priority 1998, dated 1999).
# Where two headings read alike, the source gives them in different places. Where a SMILES comes first, the peptide text is derived from it. [ ]: non-standard residue; d: D form. dPhe(F5) = N[C@H](Cc1c(F)c(F)c(F)c(F)c1F)C(=O)O; Oic = O=C(O)[C@@H]1C[C@@H]2CCCC[C@@H]2N1; Igl = N[C@H](C(=O)O)C1Cc2ccccc2C1; Hyp = O=C(O)[C@@H]1C[C@@H](O)CN1; NMeF = CN[C@@H](Cc1ccccc1)C(=O)O
# Columns and labels:
# [1] = target: T1, bradykinin receptors in Rat Uterus (Rattus norvegicus, UniProt P25023); experiment: Rat Uterus functional assay; format: cell-based
# T1 construct: describes the Rat Uterus assay used to analyze the present compounds; from tissue; host or cells: isolated rat uterus
# T1 sequence (P25023 1-396): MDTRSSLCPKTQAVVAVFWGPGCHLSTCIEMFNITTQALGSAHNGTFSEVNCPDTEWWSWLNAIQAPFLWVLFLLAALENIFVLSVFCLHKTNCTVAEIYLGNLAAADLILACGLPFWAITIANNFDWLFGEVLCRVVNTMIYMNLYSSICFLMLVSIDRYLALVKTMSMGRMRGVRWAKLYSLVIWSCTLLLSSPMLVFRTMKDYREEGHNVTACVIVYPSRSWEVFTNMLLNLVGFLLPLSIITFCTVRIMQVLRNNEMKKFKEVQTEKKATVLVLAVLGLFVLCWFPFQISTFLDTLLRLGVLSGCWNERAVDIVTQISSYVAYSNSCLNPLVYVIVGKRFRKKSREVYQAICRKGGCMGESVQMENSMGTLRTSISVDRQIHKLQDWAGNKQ
# Text: 4. Rat Uterus functional assay Trautshold, Handbook of Expt. Pharmacol. […] The Trautshold method was used without changes to the parameters. U.S. Pat. No. 4,693,993, at Column 14, line 10 gives a general description of data analysis for this assay. In this table, I=inhibitor, and numbers in parenthesis are pA2. Agonist activity are given as percent BK activity.
# [2] = target: T2, bradykinin receptors in Guinea Pig Ileum (Cavia porcellus, UniProt O70526); experiment: Guinea Pig Ileum functional assay; format: cell-based
# T2 construct: describes the Guinea Pig Ileum assay used to analyze the present compounds; from tissue; host or cells: isolated guinea pig ileum
# T2 sequence (O70526 1-372): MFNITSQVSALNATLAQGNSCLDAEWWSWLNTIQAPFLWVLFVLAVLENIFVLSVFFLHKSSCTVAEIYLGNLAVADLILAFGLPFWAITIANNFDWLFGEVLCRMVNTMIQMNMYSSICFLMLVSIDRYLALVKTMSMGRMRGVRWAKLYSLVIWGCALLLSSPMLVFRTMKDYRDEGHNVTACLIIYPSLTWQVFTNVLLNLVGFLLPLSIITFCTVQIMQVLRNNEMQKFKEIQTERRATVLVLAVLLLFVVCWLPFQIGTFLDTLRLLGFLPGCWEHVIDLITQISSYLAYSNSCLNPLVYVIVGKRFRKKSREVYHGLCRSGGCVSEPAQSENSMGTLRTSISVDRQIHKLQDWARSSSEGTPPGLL
# Text: 5. Guinea Pig Ileum functional assay
# Trautshold, Handbook of Expt. Pharmacol. Vol 25, Springer Verlag pp 53-55 (1970) describes the Guinea Pig Ileum assay used to analyze the present compounds. The Trautshold method was used without changes to the parameters. U.S. Pat. No. 4,693,993, at Column 14, line 10 gives a general description of data analysis for this assay.
# In this table, I=inhibitor, and numbers in parenthesis are pA2. Agonist activity are given as percent BK activity.
# [3] = number in parenthesis is pA2, read-out: Ileum, pA2 (I=inhibitor) (converted)
# [4] = Ileum, pA2 (I=inhibitor), number in parenthesis is pA2
SMILES,Kb [1],"Kb [2, 3]","Uterus, agonist activity as percent BK activity ([1]; rat uterus)","Kb [2, 4]","Uterus, activity in words ([1]; rat uterus, symbol without number)"
"N=C(N)NCCC[C@@H](N)C(=O)N[C@@H](CCCNC(=N)N)C(=O)N1CCC[C@H]1C(=O)N1C[C@H](O)C[C@H]1C(=O)NCC(=O)N[C@H](C(=O)N[C@@H](CO)C(=O)N[C@H](Cc1c(F)c(F)c(F)c(F)c1F)C(=O)N1[C@H](C(=O)N[C@@H](CCCNC(=N)N)C(=O)O)C[C@@H]2CCCC[C@@H]21)C1Cc2ccccc2C1 [Compound B10044, DArg-Arg-Pro-Hyp-Gly-Igl-Ser-Df5f-Oic-Arg]",7.94 nM,3.98 nM,–,–,–
"N=C(N)NCCC[C@@H](N)C(=O)N[C@@H](CCCNC(=N)N)C(=O)N1CCC[C@H]1C(=O)N1C[C@H](O)C[C@H]1C(=O)NCC(=O)N[C@H](C(=O)N[C@@H](CO)C(=O)N[C@H](Cc1c(F)c(F)c(F)c(F)c1F)C(=O)N[C@H](C(=O)N[C@@H](CCCNC(=N)N)C(=O)O)C1Cc2ccccc2C1)C1Cc2ccccc2C1 [Compound B10056, DArg-Arg-Pro-Hyp-Gly-Igl-Ser-Df5f-Igl-Arg]",–,–,9.5%,10 nM,–
"N=C(N)NCCC[C@@H](N)C(=O)N[C@@H](CCCNC(=N)N)C(=O)N1CCC[C@H]1C(=O)N1C[C@H](O)C[C@H]1C(=O)NCC(=O)N[C@H](C(=O)N[C@@H](CO)C(=O)N[C@H](Cc1c(F)c(F)c(F)c(F)c1F)C(=O)N[C@@H](Cc1cccs1)C(=O)N[C@@H](CCCNC(=N)N)C(=O)O)C1Cc2ccccc2C1 [Compound B10058, DArg-Arg-Pro-Hyp-Gly-Igl-Ser-Df5f-Thi-Arg]",6.31 nM,12.6 nM,–,–,–
"N=C(N)NCCC[C@@H](N)C(=O)N[C@@H](CCCNC(=N)N)C(=O)N1CCC[C@H]1C(=O)N1C[C@H](O)C[C@H]1C(=O)NCC(=O)N[C@H](C(=O)N[C@@H](CO)C(=O)N[C@H](Cc1c(F)c(F)c(F)c(F)c1F)C(=O)N(CC(=O)N[C@@H](CCCNC(=N)N)C(=O)O)C1CCCCC1)C1Cc2ccccc2C1 [Compound B10112, DArg-Arg-Pro-Hyp-Gly-Igl-Ser-Df5f-NchG-Arg]",–,–,21%,25.1 nM,–
"N=C(N)NCCC[C@H](NC(=O)[C@@H]1C[C@@H]2CCCC[C@@H]2N1C(=O)[C@@H](Cc1c(F)c(F)c(F)c(F)c1F)NC(=O)[C@H](CO)NC(=O)[C@H](Cc1cccs1)NC(=O)CNC(=O)[C@@H]1CCCN1C(=O)[C@@H]1CCCN1C(=O)[C@H](CCCNC(=N)N)NC(=O)[C@@H](CCCNC(=N)N)NC(=O)[C@H](CCCCN)NC(=O)CCCCCCCCCCC(=O)N[C@@H](CCCCN)C(=O)N[C@H](CCCNC(=N)N)C(=O)N[C@@H](CCCNC(=N)N)C(=O)N1CCC[C@H]1C(=O)N1CCC[C@H]1C(=O)NCC(=O)N[C@@H](Cc1cccs1)C(=O)N[C@@H](CO)C(=O)N[C@H](Cc1c(F)c(F)c(F)c(F)c1F)C(=O)N1[C@H](C(=O)N[C@@H](CCCNC(=N)N)C(=O)O)C[C@@H]2CCCC[C@@H]21)C(=O)O [Compound B10118, αDDD-(Lys-DArg-Arg-Pro-Pro-Gly-Thi-Ser-Df5f-Oic-Arg)2]",7.94 nM,5.01 nM,–,–,–
"N=C(N)NCCC[C@H](NC(=O)[C@H](CCCCN)NC(=O)[C@@H](N)CCCCN)C(=O)N1CCC[C@H]1C(=O)N1C[C@H](O)C[C@H]1C(=O)NCC(=O)N[C@H](C(=O)N[C@@H](CO)C(=O)N[C@H](Cc1c(F)c(F)c(F)c(F)c1F)C(=O)N[C@H](C(=O)O)C1CCCCC1)C1Cc2ccccc2C1 [Compound B10146, Lys-Lys-Arg-Pro-Hyp-Gly-Igl-Ser-Df5f-Chg]",–,–,–,1260 nM,Ag
"N=C(N)NCCC[C@H](NC(=O)[C@H](CCCCN)NC(=O)[C@@H](N)CCCCN)C(=O)N1CCC[C@H]1C(=O)N1C[C@H](O)C[C@H]1C(=O)NCC(=O)N[C@H](C(=O)N[C@@H](CO)C(=O)N[C@H](Cc1c(F)c(F)c(F)c(F)c1F)C(=O)N1[C@H](C(=O)O)C[C@@H]2CCCC[C@@H]21)C1Cc2ccccc2C1 [Compound B10148, Lys-Lys-Arg-Pro-Hyp-Gly-Igl-Ser-Df5f-Oic]",63.1 nM,1000 nM,–,–,–
"CN(C(=O)[C@H](CCCNC(=N)N)NC(=O)[C@H](N)CCCNC(=N)N)[C@@H](Cc1ccccc1)C(=O)N1C[C@H](O)C[C@H]1C(=O)NCC(=O)N[C@H](C(=O)N[C@@H](CO)C(=O)N[C@H](Cc1c(F)c(F)c(F)c(F)c1F)C(=O)N1[C@H](C(=O)N[C@@H](CCCNC(=N)N)C(=O)O)C[C@@H]2CCCC[C@@H]21)C1Cc2ccccc2C1 [Compound B10150, DArg-Arg-NMF-Hyp-Gly-Igl-Ser-Df5f-Oic-Arg] (H-[dR]R[NMeF][Hyp]G[Igl]S[dPhe(F5)][Oic]R-OH; N-terminus and C-terminus assumed)",7.94 nM,12.6 nM,–,–,–
"N=C(N)NCCC[C@H](NC(=O)[C@@H]1C[C@@H]2CCCC[C@@H]2N1C(=O)[C@@H](Cc1c(F)c(F)c(F)c(F)c1F)NC(=O)[C@H](CO)NC(=O)[C@@H](NC(=O)CNC(=O)[C@@H]1C[C@@H](O)CN1C(=O)[C@@H]1CCCN1C(=O)[C@H](CCCNC(=N)N)NC(=O)[C@@H](CCCNC(=N)N)NC(=O)C12CC3CC(CC(C3)C1)C2)C1Cc2ccccc2C1)C(=O)O [Compound B10154, Aca-DArg-Arg-Pro-Hyp-Gly-Igl-Ser-Df5f-Oic-Arg]",6.31 nM,12.6 nM,–,–,–
"N=C(N)NCCC[C@H](NC(=O)[C@@H]1C[C@@H]2CCCC[C@@H]2N1C(=O)[C@@H](Cc1c(F)c(F)c(F)c(F)c1F)NC(=O)[C@H](CO)NC(=O)[C@@H](NC(=O)CNC(=O)[C@@H]1C[C@@H](O)CN1C(=O)[C@@H]1CCCN1C(=O)[C@H](CCCNC(=N)N)NC(=O)[C@@H](CCCNC(=N)N)NC(=O)CN(CCCNC(=N)N)CCCNC(=N)N)C1Cc2ccccc2C1)C(=O)O [Compound B10156, Gun2-bApg-DArg-Arg-Pro-Hyp-Gly-Igl-Ser-Df5f-Oic-Arg]",5.01 nM,12.6 nM,–,–,–
"N=C(N)NCCC[C@H](NC(=O)[C@@H]1C[C@@H]2CCCC[C@@H]2N1C(=O)[C@@H](Cc1c(F)c(F)c(F)c(F)c1F)NC(=O)[C@H](CO)NC(=O)[C@@H](NC(=O)CNC(=O)[C@@H]1C[C@@H](O)CN1C(=O)[C@@H]1CCCN1C(=O)[C@H](CCCNC(=N)N)NC(=O)[C@@H](CCCNC(=N)N)NC(=O)[C@H](CCCCN)NC(=O)CCCCCCCCCCC(=O)N[C@@H](CCCCN)C(=O)N[C@H](CCCNC(=N)N)C(=O)N[C@@H](CCCNC(=N)N)C(=O)N1CCC[C@H]1C(=O)N1C[C@H](O)C[C@H]1C(=O)NCC(=O)N[C@H](C(=O)N[C@@H](CO)C(=O)N[C@H](Cc1c(F)c(F)c(F)c(F)c1F)C(=O)N1[C@H](C(=O)N[C@@H](CCCNC(=N)N)C(=O)O)C[C@@H]2CCCC[C@@H]21)C1Cc2ccccc2C1)C1Cc2ccccc2C1)C(=O)O [Compound B10158, αDDD-(Lys-Darg-Arg-Pro-Hyp-Gly-Igl-Ser-Df5f-Oic-Arg)2]",3.16 nM,10 nM,–,–,–
"N=C(N)NCCC[C@@H](N)C(=O)N[C@@H](CCCNC(=N)N)C(=O)N1CCC[C@H]1C(=O)N1C[C@H](O)C[C@H]1C(=O)NCC(=O)N[C@@H](Cc1c(F)c(F)c(F)c(F)c1F)C(=O)N[C@@H](CO)C(=O)N[C@@H](C(=O)N1[C@H](C(=O)N[C@@H](CCCNC(=N)N)C(=O)O)C[C@@H]2CCCC[C@@H]21)C1Cc2ccccc2C1 [Compound B10164, DArg-Arg-Pro-Hyp-Gly-f5f-Ser-DIgl-Oic-Arg]",10 nM,63.1 nM,–,–,–
"N=C(N)NCCC[C@@H](N)C(=O)N[C@@H](CCCNC(=N)N)C(=O)N1CCC[C@H]1C(=O)N1C[C@H](O)C[C@H]1C(=O)NCC(=O)N[C@@H](Cc1cccs1)C(=O)N[C@@H](CO)C(=O)N[C@H](Cc1c(F)c(F)c(F)c(F)c1F)C(=O)N[C@@H](Cc1c(F)c(F)c(F)c(F)c1F)C(=O)N[C@@H](CCCNC(=N)N)C(=O)O [Compound B10166, DArg-Arg-Pro-Hyp-Gly-Thi-Ser-Df5f-f5f-Arg]",7.94 nM,10 nM,–,–,–
"N=C(N)NCCC[C@@H](N)C(=O)N[C@@H](CCCNC(=N)N)C(=O)N1CCC[C@H]1C(=O)N1C[C@H](O)C[C@H]1C(=O)NCC(=O)N[C@@H](Cc1c(F)c(F)c(F)c(F)c1F)C(=O)N[C@@H](CO)C(=O)N[C@@H](C(=O)N1[C@H](C(=O)N[C@@H](CCCNC(=N)N)C(=O)O)C[C@@H]2CCCC[C@@H]21)C1Cc2ccccc2C1 [Compound B10210, DArg-Arg-Pro-Hyp-Gly-f5f-Ser-DIgl-Oic-Arg]",–,15.8 nM,–,–,–
